A word on the Ki: it is a dissociation constant, usually derived from enzyme kinetics or from competition with a known ligand. Read a low Ki as a stronger hold on the target.

Structures are written as SMILES.

Experiment [1] is described as follows: Inhibitory potency against glucosidase was determined. On the set-up: species or system Saccharomyces cerevisiae.
The target of experiment [2] is Lysosomal alpha-glucosidase (Homo sapiens, UniProt P10253). As to the kind of experiment: Inhibitory potency for alpha-glucosidase was determined at concentration up to 3.0 mM; No inhibition. Also on record: species or system Saccharomyces cerevisiae.

With `NCC(=O)N1C[C@H](O)[C@@H](O)[C@H](O)[C@H]1CO`, in experiment [1], the inhibition constant (Ki) is 23 µM.
Take `OC[C@@H]1[C@@H](O)[C@H](O)[C@@H](O)CN1Cc1ccccc1`: the Ki entry in experiment [2] is recorded as “Not Active”.

For the origin of these results see ChEMBL document CHEMBL1132039, “Isotope edited NMR studies of glycosidases: design and synthesis of a novel glycosidase inhibitor” (Bioorg Med Chem Lett, 1999).
